Source: ChEMBL document CHEMBL1201862, “PubChem BioAssay data set” (2004)
Activity calls are given as the source filed them.

Assays:
[1] = target: T1, Tyrosine-protein phosphatase non-receptor type 7 (Homo sapiens, UniProt P35236); type: functional
T1 sequence (P35236 whole entry): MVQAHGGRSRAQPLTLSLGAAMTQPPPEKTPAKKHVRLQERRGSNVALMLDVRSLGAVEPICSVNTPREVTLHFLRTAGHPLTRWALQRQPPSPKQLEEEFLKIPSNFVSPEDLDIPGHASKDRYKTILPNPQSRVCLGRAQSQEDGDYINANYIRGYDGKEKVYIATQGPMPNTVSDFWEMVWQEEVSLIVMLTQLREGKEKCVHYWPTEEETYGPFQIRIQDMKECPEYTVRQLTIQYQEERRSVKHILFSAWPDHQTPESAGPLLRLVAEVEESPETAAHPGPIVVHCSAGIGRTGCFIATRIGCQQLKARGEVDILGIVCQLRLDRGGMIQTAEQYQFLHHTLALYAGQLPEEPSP

[2] = target: T2, Dual specificity protein phosphatase 6 (Rattus norvegicus, UniProt Q64346); type: functional
[3] = target: T2, Dual specificity protein phosphatase 6
[4] = target: Glyceraldehyde-3-phosphate dehydrogenase (Homo sapiens, UniProt P04406)
[5] = growth suppression of PTEN-null colon cells, dose response, cell-based, HCT116 PTEN knockout (AID 1047); type: functional;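 also: HCT116 colon tumor cells with PTEN knocked out; cells exposed to compound for 60 hours before readout; potency for loss of cell viability measured by luminescence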
[6] = growth suppression of beta-catenin-knockout colon cells, dose response, cell-based, HCT116, human colon tumor (AID 1045); type: functional;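 also: HCT116 colon tumor cells with beta catenin knocked out; cells exposed to compound for 60 hours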
A-375 [7] = experiment: A375 melanoma cell viability reduction, dose response, counter-screen for MITF modulator project, cherry-pick samples, set 2 (AID 540335); type: functional, cell-based; details: Homo sapiens
[8] = Luminescence Cell-Based Dose Retest to Confirm Inhibitors of Cancer Stem Cells. [Related pubchem assays (depositor defined):AID2717, AID2721]; type: functional; details: Homo sapiens
[9] = target: T3, Microphthalmia-associated transcription factor (Homo sapiens, UniProt O75030); experiment: TRPM1 promoter luciferase signal decrease, dose response, MITF inhibitor project, cell-based, SK-MEL-5, cherry-picked, set 3 (AID 493073); type: functional
T3 sequence (O75030 whole entry): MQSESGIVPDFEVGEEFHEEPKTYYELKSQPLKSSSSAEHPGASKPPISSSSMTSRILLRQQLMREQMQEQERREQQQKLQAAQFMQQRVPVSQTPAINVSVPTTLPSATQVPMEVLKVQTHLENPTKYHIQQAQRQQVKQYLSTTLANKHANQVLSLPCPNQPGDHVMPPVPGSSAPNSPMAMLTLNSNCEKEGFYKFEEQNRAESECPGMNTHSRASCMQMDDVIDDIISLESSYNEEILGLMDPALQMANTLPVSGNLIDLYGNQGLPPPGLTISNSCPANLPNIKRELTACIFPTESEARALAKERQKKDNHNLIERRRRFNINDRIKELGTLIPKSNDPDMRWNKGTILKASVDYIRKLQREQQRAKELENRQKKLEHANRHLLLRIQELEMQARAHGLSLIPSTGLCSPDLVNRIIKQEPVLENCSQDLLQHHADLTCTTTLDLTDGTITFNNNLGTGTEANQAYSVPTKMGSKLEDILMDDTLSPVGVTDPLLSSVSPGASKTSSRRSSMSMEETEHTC

[10] = cytotoxicity toward DRD oncogenic fibroblasts, dose response, cell-based, non-viral oncogenic, luminescence (AID 1934); type: functional; details: Homo sapiens
[11] = control 3'UTR Renilla luciferase suppression, dose response, counter-screen for Shn3 inhibitor project, cell-based, Clone20-Shn3RL, cherry-picked (AID 624133); type: functional
BJ [12] = experiment: cytotoxicity toward BJ-TERT fibroblasts, dose response, cell-based, RAS-independent, luminescence (AID 1933); type: functional; details: Homo sapiens
BJ [13] = experiment: cytotoxicity toward BJ-TERT-LT-ST fibroblasts, dose response, cell-based, RAS-independent, luminescence (AID 1935); type: functional; details: Homo sapiens;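 also: BJ fibroblasts immortalized with TERT plus LT and ST oncogenes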
[14] = Shn3 3'UTR reporter inhibitors, dose response, cell-based, Clone20 osteoblasts, firefly luciferase, cherry-picked (AID 624132); type: functional;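 also: firefly luciferase luminescence from reporter carrying the Shn3 3'UTR in osteoblasts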
[15] = HepG2 cell cytotoxicity, dose response, cytotoxicity control for Shn3 inhibitor project, CellTiter-Glo, cherry-picked (AID 624134); type: functional, cell-based
A-375 [16] = experiment: MITF: Counter assay: A375 proliferation Measured in Cell-Based System Using Plate Reader - 2084-03_Inhibitor_Dose_DryPowder_Activity. [Related pubchem assays (depositor defined):AID488944]; type: functional; details: Homo sapiens
BJ [17] = experiment: cells; type: functional, cell-based; details: Homo sapiens
[18] = target: T4, Small ubiquitin-related modifier 1 (Homo sapiens, UniProt P63165); experiment: inhibitors of SUMO1 peptide binding, dose response, biochemical, fluorescence polarization, uHTS hits (AID 624382); type: functional; details: read-out: IC50_Mean
[19] = target: T5, Apoptotic protease-activating factor 1 (Homo sapiens, UniProt O14727); experiment: SAR analysis of small molecule Activators of Apaf-1 in a Fluorescent assay.; type: functional; details: read-out: EC50_Mean
T5 sequence (O14727 whole entry): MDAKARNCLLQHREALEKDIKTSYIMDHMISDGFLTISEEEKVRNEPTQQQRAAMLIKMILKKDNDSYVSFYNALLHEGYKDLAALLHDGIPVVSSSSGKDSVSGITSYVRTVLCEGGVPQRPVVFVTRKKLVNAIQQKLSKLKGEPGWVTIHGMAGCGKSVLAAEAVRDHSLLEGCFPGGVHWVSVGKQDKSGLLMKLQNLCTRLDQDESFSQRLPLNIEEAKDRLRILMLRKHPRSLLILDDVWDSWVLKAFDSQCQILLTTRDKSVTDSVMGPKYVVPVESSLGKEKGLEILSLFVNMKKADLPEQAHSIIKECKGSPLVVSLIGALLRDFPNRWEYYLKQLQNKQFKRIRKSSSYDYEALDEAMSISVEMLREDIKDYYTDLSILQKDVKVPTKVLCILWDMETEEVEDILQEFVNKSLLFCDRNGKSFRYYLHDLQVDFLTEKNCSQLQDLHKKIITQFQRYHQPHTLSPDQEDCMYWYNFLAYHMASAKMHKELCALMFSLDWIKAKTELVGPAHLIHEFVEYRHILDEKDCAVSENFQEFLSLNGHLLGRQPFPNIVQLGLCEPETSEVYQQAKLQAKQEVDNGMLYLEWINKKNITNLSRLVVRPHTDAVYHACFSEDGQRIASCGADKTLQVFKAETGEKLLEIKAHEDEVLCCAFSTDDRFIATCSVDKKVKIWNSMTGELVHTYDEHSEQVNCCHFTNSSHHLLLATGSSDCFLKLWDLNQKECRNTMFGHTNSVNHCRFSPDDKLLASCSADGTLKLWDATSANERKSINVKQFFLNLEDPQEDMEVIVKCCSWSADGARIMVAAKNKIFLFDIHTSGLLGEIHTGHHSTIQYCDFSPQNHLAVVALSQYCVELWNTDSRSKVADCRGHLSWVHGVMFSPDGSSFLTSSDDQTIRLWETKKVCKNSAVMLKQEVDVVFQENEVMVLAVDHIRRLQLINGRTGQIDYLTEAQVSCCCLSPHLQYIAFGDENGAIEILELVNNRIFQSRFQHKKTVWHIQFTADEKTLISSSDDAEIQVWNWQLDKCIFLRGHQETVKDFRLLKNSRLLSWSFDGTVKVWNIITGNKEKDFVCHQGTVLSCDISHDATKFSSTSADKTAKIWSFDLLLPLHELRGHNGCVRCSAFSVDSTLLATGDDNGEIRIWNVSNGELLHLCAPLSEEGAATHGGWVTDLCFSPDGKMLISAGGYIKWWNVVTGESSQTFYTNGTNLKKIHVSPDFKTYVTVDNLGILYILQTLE

[20] = target: T5, Apoptotic protease-activating factor 1; experiment: activation of Apaf-1 mediated apoptosis – fluorescent, uHTS hits, dose response (AID 588554); type: functional
[21] = target: T4, Small ubiquitin-related modifier 1; experiment: inhibitors of SUMO1 partner interactions, dose response, biochemical, FRET (AID 624383); type: functional; details: read-out: IC50_Mean
[22] = target: T6, Voltage-gated N-type calcium channel alpha-1B subunit/Amyloid beta A4 precursor protein-binding family A member 1 (Homo sapiens, UniProt Q00975+Q02410); type: protein assay
[23] = target: T6, Voltage-gated N-type calcium channel alpha-1B subunit/Amyloid beta A4 precursor protein-binding family A member 1; type: protein assay; remark: listed apart in the source
Candida albicans [24] = experiment: growth inhibition of azole-resistant C. albicans, dose response, CaCi-8 strain, Alamar Blue, dry powder, set 2 (AID 488909); type: functional, organism-based
Candida albicans [25] = experiment: fluconazole resistance reversal in C. albicans, dose response, CaCi-2 strain, Alamar Blue, dry powder, set 4 (AID 488943); type: functional, organism-based
Candida albicans [26] = experiment: C. albicans growth inhibition with fluconazole, dose response, antifungal resistance reversal project, CaCi-2 strain, Alamar Blue, dry powder, set 2 (AID 488930); type: functional, organism-based
Candida albicans [27] = experiment: growth inhibition of resistant C. albicans, dose response, CaCi-8 strain, fluconazole, dry powder, set 4 (AID 488950); type: functional, organism-based
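For EC50 Mean in this document: caspase-3 cleavage of fluorogenic Rh110 DEVD substrate downstream of apoptosome activation.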

T4 sequence (P63165 whole entry): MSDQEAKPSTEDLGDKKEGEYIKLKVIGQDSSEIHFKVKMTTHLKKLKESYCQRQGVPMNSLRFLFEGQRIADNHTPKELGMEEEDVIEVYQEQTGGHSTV
T2 sequence (Q64346 whole entry): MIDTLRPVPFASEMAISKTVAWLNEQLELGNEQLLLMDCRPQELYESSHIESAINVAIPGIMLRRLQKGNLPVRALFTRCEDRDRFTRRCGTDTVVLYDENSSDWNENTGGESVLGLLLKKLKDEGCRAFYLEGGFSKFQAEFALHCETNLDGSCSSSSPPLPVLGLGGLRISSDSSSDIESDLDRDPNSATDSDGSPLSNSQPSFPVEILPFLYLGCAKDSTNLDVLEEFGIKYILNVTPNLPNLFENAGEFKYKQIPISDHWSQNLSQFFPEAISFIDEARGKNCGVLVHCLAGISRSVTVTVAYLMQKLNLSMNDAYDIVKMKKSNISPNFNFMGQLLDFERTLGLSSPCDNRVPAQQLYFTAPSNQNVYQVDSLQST
T6 sequence (Q00975 whole entry): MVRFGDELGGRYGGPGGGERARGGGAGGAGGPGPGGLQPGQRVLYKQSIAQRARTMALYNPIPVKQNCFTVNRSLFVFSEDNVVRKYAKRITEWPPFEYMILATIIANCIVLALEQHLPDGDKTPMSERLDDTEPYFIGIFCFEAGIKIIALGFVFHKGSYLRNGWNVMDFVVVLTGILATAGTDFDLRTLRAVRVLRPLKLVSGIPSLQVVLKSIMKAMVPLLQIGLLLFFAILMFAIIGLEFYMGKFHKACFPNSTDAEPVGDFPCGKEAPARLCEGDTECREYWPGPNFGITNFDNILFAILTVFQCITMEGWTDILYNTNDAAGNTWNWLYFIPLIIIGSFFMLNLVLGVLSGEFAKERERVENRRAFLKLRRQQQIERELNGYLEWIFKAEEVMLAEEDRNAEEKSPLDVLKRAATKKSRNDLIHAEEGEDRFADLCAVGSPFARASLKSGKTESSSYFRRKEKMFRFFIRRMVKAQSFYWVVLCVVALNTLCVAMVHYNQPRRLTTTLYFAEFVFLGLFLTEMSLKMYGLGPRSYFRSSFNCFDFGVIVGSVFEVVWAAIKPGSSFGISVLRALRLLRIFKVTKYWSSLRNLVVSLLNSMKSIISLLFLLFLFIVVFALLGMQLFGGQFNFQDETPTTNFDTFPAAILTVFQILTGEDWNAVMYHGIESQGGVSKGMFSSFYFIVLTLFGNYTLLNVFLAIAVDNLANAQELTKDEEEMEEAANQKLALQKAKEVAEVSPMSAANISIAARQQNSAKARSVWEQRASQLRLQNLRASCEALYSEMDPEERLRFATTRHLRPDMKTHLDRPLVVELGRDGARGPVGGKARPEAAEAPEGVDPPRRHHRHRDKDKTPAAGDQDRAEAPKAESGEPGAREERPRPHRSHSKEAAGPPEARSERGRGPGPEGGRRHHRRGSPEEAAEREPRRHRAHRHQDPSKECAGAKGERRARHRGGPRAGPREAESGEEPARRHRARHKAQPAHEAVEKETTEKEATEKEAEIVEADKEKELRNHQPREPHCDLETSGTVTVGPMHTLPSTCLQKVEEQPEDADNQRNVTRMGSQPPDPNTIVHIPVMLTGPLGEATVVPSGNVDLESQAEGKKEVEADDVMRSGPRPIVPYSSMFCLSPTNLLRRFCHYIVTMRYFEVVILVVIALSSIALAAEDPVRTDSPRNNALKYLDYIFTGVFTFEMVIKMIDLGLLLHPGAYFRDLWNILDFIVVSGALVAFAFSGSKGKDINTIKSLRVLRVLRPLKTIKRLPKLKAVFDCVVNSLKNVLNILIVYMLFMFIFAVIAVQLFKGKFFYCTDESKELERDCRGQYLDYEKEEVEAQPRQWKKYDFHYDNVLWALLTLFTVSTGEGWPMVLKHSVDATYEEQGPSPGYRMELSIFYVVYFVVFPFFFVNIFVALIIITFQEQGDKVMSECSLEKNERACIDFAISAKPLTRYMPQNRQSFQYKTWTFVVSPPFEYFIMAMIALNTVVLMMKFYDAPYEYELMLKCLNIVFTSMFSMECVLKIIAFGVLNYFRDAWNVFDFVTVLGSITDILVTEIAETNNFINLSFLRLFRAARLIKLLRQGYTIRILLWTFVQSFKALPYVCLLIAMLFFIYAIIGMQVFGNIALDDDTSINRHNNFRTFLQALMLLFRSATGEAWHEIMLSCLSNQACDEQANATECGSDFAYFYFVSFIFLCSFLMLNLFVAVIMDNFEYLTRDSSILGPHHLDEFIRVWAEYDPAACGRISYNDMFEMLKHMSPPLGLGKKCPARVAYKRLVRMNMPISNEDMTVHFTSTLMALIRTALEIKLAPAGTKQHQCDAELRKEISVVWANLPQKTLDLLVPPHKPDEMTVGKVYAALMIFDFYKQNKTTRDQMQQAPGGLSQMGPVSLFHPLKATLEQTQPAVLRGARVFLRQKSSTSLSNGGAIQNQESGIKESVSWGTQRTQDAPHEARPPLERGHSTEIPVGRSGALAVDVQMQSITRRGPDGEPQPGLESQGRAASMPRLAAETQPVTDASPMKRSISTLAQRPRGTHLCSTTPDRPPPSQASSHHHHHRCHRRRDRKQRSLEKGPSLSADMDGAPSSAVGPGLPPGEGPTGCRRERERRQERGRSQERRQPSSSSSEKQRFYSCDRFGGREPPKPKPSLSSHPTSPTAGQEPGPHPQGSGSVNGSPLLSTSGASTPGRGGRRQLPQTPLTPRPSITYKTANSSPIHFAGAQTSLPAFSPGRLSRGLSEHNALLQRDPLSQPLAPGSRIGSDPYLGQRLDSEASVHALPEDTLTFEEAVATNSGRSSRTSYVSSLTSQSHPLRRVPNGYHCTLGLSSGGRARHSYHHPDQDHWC
T6 sequence (Q02410 whole entry): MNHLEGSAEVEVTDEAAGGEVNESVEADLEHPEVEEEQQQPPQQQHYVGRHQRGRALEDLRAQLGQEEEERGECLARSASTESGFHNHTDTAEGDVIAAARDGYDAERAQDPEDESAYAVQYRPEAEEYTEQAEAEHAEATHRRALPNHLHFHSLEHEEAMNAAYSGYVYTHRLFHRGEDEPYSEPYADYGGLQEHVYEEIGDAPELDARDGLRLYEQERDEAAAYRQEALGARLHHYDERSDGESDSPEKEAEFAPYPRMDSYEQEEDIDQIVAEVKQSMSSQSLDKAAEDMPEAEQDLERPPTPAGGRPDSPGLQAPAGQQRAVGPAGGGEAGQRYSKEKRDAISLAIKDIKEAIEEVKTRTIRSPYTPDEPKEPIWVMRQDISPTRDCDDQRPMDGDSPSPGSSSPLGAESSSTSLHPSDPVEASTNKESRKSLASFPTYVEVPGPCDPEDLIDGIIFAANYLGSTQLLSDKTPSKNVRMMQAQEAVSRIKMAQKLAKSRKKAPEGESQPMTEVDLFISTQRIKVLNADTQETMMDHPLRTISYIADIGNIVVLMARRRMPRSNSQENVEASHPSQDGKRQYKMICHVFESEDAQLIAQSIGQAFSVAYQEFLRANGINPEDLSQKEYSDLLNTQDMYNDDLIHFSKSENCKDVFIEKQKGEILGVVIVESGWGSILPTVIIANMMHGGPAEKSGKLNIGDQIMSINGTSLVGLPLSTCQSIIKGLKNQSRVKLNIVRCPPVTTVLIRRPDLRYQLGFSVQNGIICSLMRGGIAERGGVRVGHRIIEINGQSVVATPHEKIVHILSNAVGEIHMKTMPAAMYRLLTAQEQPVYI
Chain of Glyceraldehyde-3-phosphate dehydrogenase (P04406 whole entry): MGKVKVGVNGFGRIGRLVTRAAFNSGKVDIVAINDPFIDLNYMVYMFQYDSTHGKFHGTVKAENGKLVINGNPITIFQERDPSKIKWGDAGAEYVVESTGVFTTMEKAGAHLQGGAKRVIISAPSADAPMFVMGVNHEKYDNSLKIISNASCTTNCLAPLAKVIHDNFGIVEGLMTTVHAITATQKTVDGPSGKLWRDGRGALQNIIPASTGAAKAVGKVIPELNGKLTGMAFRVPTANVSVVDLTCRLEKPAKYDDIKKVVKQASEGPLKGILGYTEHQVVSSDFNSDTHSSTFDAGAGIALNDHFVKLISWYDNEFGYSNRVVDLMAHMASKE

With `CCn1c(SCC(=O)O)nc2sc3c(c2c1=O)CCCC3` the IC50 [1] was > 100 µM (not active), the IC50 [2] was > 100 µM (inactive) and the IC50 [3] was > 100 µM (inactive). The IC50 [4] was > 100 µM (not active).

In the case of `O=C1C(Cl)=C(Nc2ccccc2)C(=O)c2ccccc21`, the EC50 [5] was 8.47 µM (active), the EC50 [6] was 4.77 µM (active) and the AC50 (A-375 [7]) was 4.17 µM (active). The AC50 [8] was 0.779 µM (active) and the AC50 [9] was 2.88 µM (active).

With `Cc1cccc(N2C(=O)NC(=O)/C(=C\C=C\c3ccco3)C2=O)c1` the EC50 [10] was 3.62 µM (active), the AC50 [11] was 26.4 µM (active) and the EC50 (BJ [12]) was 4.02 µM (active). The EC50 (BJ [13]) was 4.93 µM (inconclusive), the AC50 [14] was 3.06 µM (active) and the AC50 [15] was 25.6 µM (active). The AC50 (A-375 [16]) was 28.4 µM (active), the EC50 (BJ [17]) was 11.3 µM (active) and the AC50 [9] was 5.75 µM (active).

In the case of `O=C(Nc1nc2ccsc2c(=O)s1)c1ccco1`, the IC50 [18] was > 66.6 µM (inactive), the EC50 [19] was 59 µM (active) and the EC50 [20] was 22.8 µM (active). The IC50 [21] was 15.9 µM (active), the IC50 [22] was 11.8 µM (active) and the IC50 [23] was > 50 µM (inactive).

With `CC1CN(c2ccnc3cc(Cl)ccc23)CCN1C(=O)c1ccc(Cl)cc1` (stereo not drawn) the AC50 (Candida albicans [24]) was 6.14 µM (active), the AC50 (Candida albicans [25]) was 0.783 µM (active) and the AC50 (Candida albicans [26]) was 0.645 µM (active). For the same compound, the AC50 (Candida albicans [27]) was 1.82 µM (active).
